According to paper PMC10895668, “Lead Optimization of the 5-Phenylpyrazolopyrimidinone NPD-2975 toward Compounds with Improved Antitrypanosomal Efficacy” (Journal of Medicinal Chemistry, 2024):
Where two headings read alike, the source gives them in different places.

Assays:
[1] = human, microsomes, 1 h
T. b. brucei = conditions: for survival: n = 3
Procedure: The antiparasitic assays were carried out exactly as described in Blaazer et al.([39]) Metabolic stability, pharmacokinetics, acute mouse infection model results were collected as described previously.[21] All animal experiments were conducted in compliance with institutional guidelines and following approval by the Ethical Committee of the University of Antwerp, Belgium [UA-ECD 2014–96]. Female Swiss mice (15–20 g), were purchased from Janvier (Le Genest Saint Isle, France). […] Animals were treated PO b.i.d. for 5 days at 25 and 50 mg/kg 31c. For the SL-RNA qPCR experiments blood was collected sublingually and subjected to erythrocyte lysis before extracting RNA with the QIAamp RNA Blood Mini kit (Qiagen). […] Small pieces of fat, brain, and spleen tissue were excised and immediately transferred to RNA later (Qiagen) and incubated overnight at 4 °C. RNA extraction was performed as instructed in the RNeasy Mini Plus Kit manual (Qiagen). The one-step SensiFAST SYBR Hi-Rox PCR kit (Bioline USA Inc., via Gentaur Belgium BVBA, Kampenhout, Belgium) was used for the PCR with the following forward and reverse primers, respectively 5′-[…]-3′ and 5′-[…]-3′. An initial activation step of 10 min at 45 °C and 10 min at 95 °C was used, followed by the amplification step for 40 cycles (15 s at 95 °C, 15 s 50 °C and 15 s at 60 °C). At last, the melting curves were generated with an increment of 0.3 °C (15 s at 95 °C 1 min at 45 °C and 15 s at 95 °C). The PCR was run on the Step One Plus real-time PCR system (Applied Biosystems, California, USA). An additional qPCR was performed with the mouse housekeeping gene Eef2 to confirm successful RNA extraction.
Mice were allocated to groups of three and were infected by IP injection of 10^4T. brucei Squib 427 trypomastigotes. […] Suramin was included as a reference for T. brucei and injected IP s.i.d. for 5 days at 10 mg/kg. A PEG400 vehicle control group was also included. […] The first treatment was given 30 min prior to the artificial infection. Drug efficacy was evaluated by microscopic determination of the parasitemia in a blood drop collected from the tail vein at several time points until 63 days postinfection (dpi). […] An SL-RNA qPCR assay was performed in all surviving animals to confirm parasitological cure. For the SL-RNA qPCR, peripheral blood was subjected to erythrocyte lysis before extracting RNA with the QIAamp RNA Blood Mini kit (Qiagen). […] Small pieces of fat, brain, and spleen tissues were excised and immediately transferred to RNA later (Qiagen) and incubated overnight at 4 °C. RNA extraction was performed as instructed in the RNeasy Mini Plus Kit manual (Qiagen). […]

CC(C)(C)c1n[nH]c2c(=O)[nH]c(-c3ccc(F)cc3)nc12 [31c, 3-(tert-Butyl)-5-(4-fluorophenyl)-1,6-dihydro-7H-pyrazolo[4,3-d]pyrimidin-7-one]
parent compound remaining [1]: at least 69% | survival (T. b. brucei; 25 mg/kg b.i.d. PO for 5 days, one accidental death in this group): survived throughout the 60 days postinfection follow-up period without relapse | survival (T. b. brucei; 50 mg/kg b.i.d. PO for 5 days): survived throughout the 60 days postinfection follow-up period without relapse | trypanosome Spliced Leader (SL) RNA by qPCR (T. b. brucei; blood, spleen, fat and brain tissue of surviving animals): difficulty to detect trypanosome Spliced Leader (SL) RNA
